Series [1] has as its system Wistar rats. The experiment in a line: Rotenone-induced PD: severe catalepsy on inclined grid. The format is in vivo, rat. Conditions: for Severe catalepsy (% of group): 45 min before rotenone 2.3 mg/kg, immobilization on inclined grid above 40 seconds; for Severe catalepsy, Day 19: control 58, doses as E38; for Severe catalepsy, Day 12: oral daily 19 days, 45 min before rotenone 2.3 mg/kg IP, levodopa given with benserazide 4:1, control 42, rat dose mg/kg by row (L levodopa, P phenylephrine, M memantine): r12 M2.5, r13 M5, r14 P0.3, r15 L10, r16 L20, r17 L5+P0.3+M1, r18 L10+P0.3+M1. The source says:
Rotenone is a specific inhibitor of mitochondrial complex 1, which causes oxidative stress and apoptotic death of dopaminergic and cholinergic neurons in the striatum, substantia nigra and cerebellum. Damage to these neurons causes a decrease in dopamine and acetylcholine levels in the striatum, extrapyramidal disorders (catalepsy, impaired coordination of movements) and oligokinesia typical for PD, as well as ataxia, limb dystonia and mortality characteristic of PSP. Rotenone is used to create a model of PD and PSP in Wistar rats by intraperitoneal introduction of rotenone in a toxic dose of 2.3 mg/kg (Jason R. Cannon et al., Neurobiology of Disease, 2009, Vol. 34, pages 279-290).
Rotenone was dissolved in mixture of DMSO and Miglyol 812N at a ratio of 2:98 at concentration of 2.3 mg/ml. Preparation: 230 mg sample of rotenone in vials was dissolved in 2 ml of DMSO. The solution was poured into a jar with 100 ml. Vials are rinsed twice with 5 ml of Miglyol, washings attached to the main solution and stirred. To this solution was added 88 ml of Miglyol and mixed again. The resulting solution was divided into 3 doses. The solution was stored at −10° C. Each animal was administered 0.2 ml of a solution of rotenone: a dose of 0.46 mg per animal weighing 200±20 g, i.e. 2.3 mg/kg. The solution of rotenone was injected IP one time a day for 19 days.
Anti-parkinsonian effect of therapy in rats with rotenone-induced PD was estimated according to elimination of extrapyramidal disorders (catalepsy) and oligokinesia (rapid decreased amplitude and velocity of repeated movements) in the “open field” test. The neuro-protective effect of therapy was evaluated by the elimination of ataxia limb dystonia and mortality in rats with rotenone-induced PSP. Hyperkinetic side action (hyper-locomotion) was evaluated by increased horizontal and vertical activity in the open field at the 10th and 18th day of the experiment, calculated in % compared to the first day of the experiment.
The number of animals in the control and experimental groups ranged from 6 to 8.
Levodopa was administered in combination with benserazide (peripheral dopa-decarboxylase inhibitor) at a ratio of 4:1 to reduce the side effects of levodopa, associated with the stimulation of peripheral dopamine receptors (Alam M. et al., Behav. Brain Res., 2004, Vol. 153 (2), pages 439-446). Levodopa with benserazide were dissolved in 1 ml of DW and administered orally in the volume of 1 ml. […] The mixture was administered orally in a volume of 1 ml. Anti-parkinsonian effect in the experimental groups of rats with rotenone has been evaluated by eliminating catalepsy and oligokinesia.
Catalepsy in rats is determined by the time of immobilization of the animal, placed on a large grid predisposed at an angle of 45°. Maximum catalepsy in rats is recorded in the case of their complete immobilization on grid at 120 seconds for observation. The value of catalepsy is evaluated in points: 3 points—immobilization duration from 80 seconds to 120, 2 points—immobilization duration from 40 to 70, 1 point—immobilization duration from 20 to 35, 0 points—the immobilization of less than 20 seconds. Catalepsy was followed in rats daily, 30 minutes before administration of rotenone and 180 minutes after administration of rotenone. For each experimental group, on a daily basis, throughout the period of observation number of rats with severe catalepsy (2-3 points) was determined in % of the total number of rats in group. To assess the anti-cataleptic effects of therapy, on 12th and 19th day of experiment, reduction in the number of rats with severe catalepsy (2-3 points) in % was determined compared to control treated with distilled water.
Anti-parkinsonian effect of therapy in rats with rotenone-induced parkinsonism was estimated according to elimination of extrapyramidal disorders (catalepsy) and oligokinesia in the “open field” test. […]

The test system of another series is male Wistar rats. The experiment in a line: Opioid hyperalgesia in tail and paw withdrawal tests (% rats).
Series [2] has as its system Wistar rats. The experiment in a line: Open field test, hypokinetic (sedative) or hyperkinetic action (analgesia examples). How it is done: (§1) To evaluate the hypokinetic (sedative) or hyperkinetic action effects of tested drugs an “open field” (OF) test was applied. In the OF test, the locomotive activity of rats is determined. Animals were placed in the center of square of the illuminated field (1 meter×1 meter) for 3 minutes and the mobility time was recorded in seconds (horizontal activity). […] To quantify the locomotive activity for each dose of test drug(s) an average horizontal activity was calculated.
as §1
To evaluate the hypokinetic (sedative) effects of drugs, “open field” (OF) test was applied. In the OF test, the locomotive activity of rats is determined. Animals were placed in the center of square of the illuminated field (1 meter×1 meter) for 3 minutes and the mobility time was recorded in seconds (horizontal activity). […] To quantify the locomotive activity for each dose of test drug(s), an average horizontal activity was calculated.
Tail-Flick and Open Field Tests were Conducted as Detailed Above.
as §1

`N[C@@H](Cc1ccc(O)c(O)c1)C(=O)O` [Levodopa, L-3,4-dihydroxyphenylalanine]: the “Severe catalepsy (% of group)” value with Wistar rats [1] (Day 12, levodopa 10 mg/kg oral) is on record as 28 % of group; with Wistar rats [1] (Day 12, levodopa 20 mg/kg oral), 12 % of group; with Wistar rats [1] (Day 19, levodopa 10 mg/kg oral), 42 % of group; with Wistar rats [1] (Day 19, levodopa 20 mg/kg oral), 24 % of group. The “Severe catalepsy, Day 19” value with Wistar rats [1] (levodopa 10 mg/kg) is reported as 42 % of group; with Wistar rats [1] (levodopa 20 mg/kg), 24 % of group.

Regarding `CC12CC3CC(C)(C1)CC(N)(C3)C2` [Memantine, memantine], the “Severe catalepsy (% of group)” value is on record as 17 % of group with Wistar rats [1] (Day 12, memantine 5 mg/kg oral); 33 % of group in the series on Wistar rats [1] (Day 12, memantine […] oral); 17 % of group in the series on Wistar rats [1] (Day 19, memantine 5 mg/kg oral); 50 % of group in the series with Wistar rats [1] (Day 19, memantine […] oral). For the same compound, the “Severe catalepsy, Day 12” value in the series with Wistar rats [1] (memantine 2.5 mg/kg) was 33 % of group; in the series on Wistar rats [1] (memantine 5 mg/kg), 17 % of group. Moreover, the Hyperalgesia with male Wistar rats (doses as E6), in the series with male Wistar rats (doses as E12), with male Wistar rats (doses as E48) and with male Wistar rats (doses as E54) was 0 % rats each time. Also, the Sedation in the series on Wistar rats [2] (I.M., doses by row as E3) is on record as 0 % of Rats. For the same compound, the Hyperkinesia or sedation with Wistar rats [2] (unmarked cells, doses as E6) was 0 % rats. In the series with Wistar rats [2] (unmarked cells, doses as E12), this compound yielded a Hyperkinesia or sedataion of 0 % rats. Besides, the Hyperkinesia with Wistar rats [2] (unmarked cells, doses as E48) was determined as 0 % rats; with Wistar rats [2] (unmarked cells, doses as E54), 0 % rats.

The record behind these values is patent publication US20200188388A1, “METHODS AND COMPOSITIONS FOR PO[…] DRUGS AND REDUCING THEIR SIDE EFFECTS” (RVX THERAPEUTICS LTD., priority 2016, published 2020).
